According to ChEMBL document CHEMBL1201862, “PubChem BioAssay data set” (2004):
The source made the active and inactive calls.

Legend:
Protein RecA = molecular target: T1, Protein RecA (Mycobacterium tuberculosis, UniProt P9WHJ3); assay: Fluorescence Cell-Free Homogeneous Dose Retest to Identify Inhibitors of RecA-Intein Splicing Activity. [Related pubchem assays (depositor defined):AID2097, AID2223, AID489010, AID492950]; format: functional
T1 sequence (P9WHJ3 whole entry): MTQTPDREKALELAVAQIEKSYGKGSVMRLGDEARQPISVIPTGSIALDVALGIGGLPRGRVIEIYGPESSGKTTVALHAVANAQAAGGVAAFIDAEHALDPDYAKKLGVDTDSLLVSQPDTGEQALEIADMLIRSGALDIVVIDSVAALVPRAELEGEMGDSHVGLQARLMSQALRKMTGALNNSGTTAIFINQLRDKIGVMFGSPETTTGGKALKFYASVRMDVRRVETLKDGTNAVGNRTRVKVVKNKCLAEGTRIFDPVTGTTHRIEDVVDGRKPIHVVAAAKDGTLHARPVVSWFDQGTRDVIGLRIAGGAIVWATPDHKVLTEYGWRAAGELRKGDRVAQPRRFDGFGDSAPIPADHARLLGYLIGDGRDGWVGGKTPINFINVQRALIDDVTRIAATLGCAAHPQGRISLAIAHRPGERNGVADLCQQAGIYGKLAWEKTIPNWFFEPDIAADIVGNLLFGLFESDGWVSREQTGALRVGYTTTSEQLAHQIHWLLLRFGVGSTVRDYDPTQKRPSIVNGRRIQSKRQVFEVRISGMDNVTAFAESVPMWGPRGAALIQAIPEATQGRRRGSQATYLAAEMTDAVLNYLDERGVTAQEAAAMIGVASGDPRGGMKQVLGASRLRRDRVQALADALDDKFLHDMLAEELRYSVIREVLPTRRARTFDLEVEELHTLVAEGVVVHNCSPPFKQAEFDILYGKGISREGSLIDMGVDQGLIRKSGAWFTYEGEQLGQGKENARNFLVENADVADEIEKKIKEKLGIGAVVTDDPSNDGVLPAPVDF

[1] = molecular target: T2, Replicative DNA helicase DnaB (Mycobacterium tuberculosis, UniProt P9WMR3); assay: DnaB intein splicing inhibitors, dose response, biochemical, cell-free fluorescence (AID 449749); format: functional
T2 sequence (P9WMR3 whole entry): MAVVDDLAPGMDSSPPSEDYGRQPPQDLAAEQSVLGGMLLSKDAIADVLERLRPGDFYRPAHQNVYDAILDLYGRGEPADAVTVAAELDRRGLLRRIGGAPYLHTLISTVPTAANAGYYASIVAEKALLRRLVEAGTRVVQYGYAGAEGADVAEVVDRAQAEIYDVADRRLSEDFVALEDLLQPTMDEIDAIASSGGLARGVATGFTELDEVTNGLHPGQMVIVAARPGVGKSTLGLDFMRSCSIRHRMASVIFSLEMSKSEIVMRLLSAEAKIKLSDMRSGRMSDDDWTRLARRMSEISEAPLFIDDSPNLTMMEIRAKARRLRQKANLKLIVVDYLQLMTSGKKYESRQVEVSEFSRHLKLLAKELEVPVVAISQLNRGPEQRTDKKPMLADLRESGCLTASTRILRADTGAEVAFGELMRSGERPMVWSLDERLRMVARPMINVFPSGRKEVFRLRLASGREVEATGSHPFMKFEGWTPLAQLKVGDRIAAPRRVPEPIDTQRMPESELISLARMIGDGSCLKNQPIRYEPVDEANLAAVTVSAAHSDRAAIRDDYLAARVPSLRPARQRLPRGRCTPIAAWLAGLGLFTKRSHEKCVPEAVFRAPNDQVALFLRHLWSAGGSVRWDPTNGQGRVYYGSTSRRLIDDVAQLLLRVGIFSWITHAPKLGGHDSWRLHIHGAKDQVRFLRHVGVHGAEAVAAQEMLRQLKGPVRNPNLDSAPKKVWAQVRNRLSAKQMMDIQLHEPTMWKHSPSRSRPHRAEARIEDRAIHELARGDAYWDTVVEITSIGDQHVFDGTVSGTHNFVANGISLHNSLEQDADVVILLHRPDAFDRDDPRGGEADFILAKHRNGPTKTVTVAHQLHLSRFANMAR

Genome polyprotein = Genome polyprotein (dengue virus type 2, UniProt P29990); assay: Dengue-2 NS5 methyltransferase inhibitors, primary screen, biochemical, confirmation dose response (AID 588689); format: functional
[2] = molecular target: Peroxisome proliferator-activated receptor gamma/Nuclear receptor coactivator 2 (Homo sapiens, UniProt P37231); assay: (§1) TR-FRET dose response biochemical High Throughput Screening assay for agonists of the steroid receptor coactivator 2 (SRC-2) recruitment by the peroxisome proliferator-activated receptor gamma (PPAR gamma): non-selective agonists. [Related pubchem assays: 1297, 1032 ]; format: functional
[3] = molecular target: Peroxisome proliferator-activated receptor gamma/Nuclear receptor coactivator 3 (Homo sapiens, UniProt P37231); assay: as §1, with “3 (SRC-3)” for “2 (SRC-2)”, “1301 (Confirmation screen.), 1048 (Primary screen.)]” for “1297, 1032 ]”; format: functional
[4] = molecular target: Peroxisome proliferator-activated receptor gamma/Nuclear receptor coactivator 1 (Homo sapiens, UniProt P37231); assay: as §1, with “1 (SRC-1)” for “2 (SRC-2)”, “assays (depositor defined):AID1300, AID1808, AID504735, AID631]” for “assays: 1297, 1032 ]”; format: protein assay
[5] = molecular target: T3, Corticotropin-releasing factor receptor 2/Corticotropin-releasing factor-binding protein (Homo sapiens, UniProt P24387+Q13324); assay: activators of CRF receptor 2 with binding protein – uHTS hits, confirmation (AID 602473); format: functional; conditions: read-out: EC50_Mean
T3 sequence (Q13324 whole entry): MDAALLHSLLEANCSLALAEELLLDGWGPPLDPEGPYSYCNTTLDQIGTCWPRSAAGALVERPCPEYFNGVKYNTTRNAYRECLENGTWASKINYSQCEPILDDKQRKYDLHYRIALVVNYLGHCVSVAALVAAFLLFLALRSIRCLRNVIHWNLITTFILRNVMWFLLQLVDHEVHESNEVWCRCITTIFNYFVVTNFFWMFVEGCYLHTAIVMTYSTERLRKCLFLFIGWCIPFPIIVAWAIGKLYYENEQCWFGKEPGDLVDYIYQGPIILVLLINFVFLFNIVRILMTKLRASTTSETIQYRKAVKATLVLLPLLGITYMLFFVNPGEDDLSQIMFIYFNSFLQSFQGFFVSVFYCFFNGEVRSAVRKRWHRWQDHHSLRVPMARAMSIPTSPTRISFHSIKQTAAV
T3 sequence (P24387 whole entry): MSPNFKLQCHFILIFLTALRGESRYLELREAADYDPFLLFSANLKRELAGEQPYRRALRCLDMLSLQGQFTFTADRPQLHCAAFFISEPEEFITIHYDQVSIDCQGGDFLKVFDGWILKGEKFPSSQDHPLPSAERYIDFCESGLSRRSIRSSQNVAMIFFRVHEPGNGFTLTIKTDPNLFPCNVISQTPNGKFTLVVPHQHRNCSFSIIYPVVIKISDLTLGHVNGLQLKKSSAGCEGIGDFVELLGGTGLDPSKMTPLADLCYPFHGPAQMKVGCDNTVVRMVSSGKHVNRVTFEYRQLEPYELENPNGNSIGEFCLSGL

[6] = molecular target: T4, Small ubiquitin-related modifier 1 (Homo sapiens, UniProt P63165); assay: inhibitors of SUMO1 peptide binding, dose response, biochemical, fluorescence polarization, uHTS hits (AID 624382); format: functional; conditions: read-out: IC50_Mean
[7] = molecular target: T3, Corticotropin-releasing factor receptor 2/Corticotropin-releasing factor-binding protein; assay: Dose Response confirmation of uHTS hits for small molecule antagonists of the CRF-binding protein and CRF-R2 receptor complex.; format: functional; conditions: read-out: IC50_Mean
[8] = molecular target: T4, Small ubiquitin-related modifier 1; assay: inhibitors of SUMO1 partner interactions, dose response, biochemical, FRET (AID 624383); format: functional; conditions: read-out: IC50_Mean
[9] = molecular target: Heat shock protein HSP 90-alpha (Homo sapiens, UniProt P07900); format: functional, organism-based
[10] = molecular target: FAD-linked sulfhydryl oxidase ALR (Homo sapiens, UniProt P55789); assay: inhibitors of human ALR sulfhydryl oxidase, dose response, biochemical, H2O2 detection, luminescence, cherry-pick (AID 493248)

T4 sequence (P63165 whole entry): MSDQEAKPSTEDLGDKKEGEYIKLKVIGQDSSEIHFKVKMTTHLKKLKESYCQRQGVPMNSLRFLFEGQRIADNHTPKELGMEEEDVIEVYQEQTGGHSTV
Chain of Genome polyprotein (P29990 2492-3391 limits assumed): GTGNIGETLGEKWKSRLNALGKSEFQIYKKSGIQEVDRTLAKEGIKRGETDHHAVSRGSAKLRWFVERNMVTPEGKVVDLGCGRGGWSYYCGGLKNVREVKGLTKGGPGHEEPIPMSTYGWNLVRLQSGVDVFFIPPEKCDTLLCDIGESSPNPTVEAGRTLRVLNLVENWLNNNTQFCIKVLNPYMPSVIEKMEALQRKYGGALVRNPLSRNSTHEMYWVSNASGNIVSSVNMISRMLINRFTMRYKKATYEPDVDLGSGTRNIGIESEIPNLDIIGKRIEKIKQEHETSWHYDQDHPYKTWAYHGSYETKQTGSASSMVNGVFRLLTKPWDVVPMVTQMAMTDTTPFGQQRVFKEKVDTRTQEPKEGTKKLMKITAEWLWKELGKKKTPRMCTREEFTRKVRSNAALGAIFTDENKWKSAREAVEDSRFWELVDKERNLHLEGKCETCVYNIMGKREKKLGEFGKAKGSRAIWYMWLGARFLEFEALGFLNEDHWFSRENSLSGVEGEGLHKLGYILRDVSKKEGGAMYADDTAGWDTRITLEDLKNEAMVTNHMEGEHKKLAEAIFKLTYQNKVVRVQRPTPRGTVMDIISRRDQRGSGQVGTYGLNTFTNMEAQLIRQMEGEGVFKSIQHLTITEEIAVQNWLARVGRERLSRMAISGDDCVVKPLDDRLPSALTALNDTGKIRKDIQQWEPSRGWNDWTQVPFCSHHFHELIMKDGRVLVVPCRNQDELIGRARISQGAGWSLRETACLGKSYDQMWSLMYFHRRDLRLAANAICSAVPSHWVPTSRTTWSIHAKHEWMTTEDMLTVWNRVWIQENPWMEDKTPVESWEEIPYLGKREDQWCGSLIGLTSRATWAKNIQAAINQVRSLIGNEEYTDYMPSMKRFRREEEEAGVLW
Chain of Peroxisome proliferator-activated receptor gamma/Nuclear receptor coactivator 1 (P37231 whole entry): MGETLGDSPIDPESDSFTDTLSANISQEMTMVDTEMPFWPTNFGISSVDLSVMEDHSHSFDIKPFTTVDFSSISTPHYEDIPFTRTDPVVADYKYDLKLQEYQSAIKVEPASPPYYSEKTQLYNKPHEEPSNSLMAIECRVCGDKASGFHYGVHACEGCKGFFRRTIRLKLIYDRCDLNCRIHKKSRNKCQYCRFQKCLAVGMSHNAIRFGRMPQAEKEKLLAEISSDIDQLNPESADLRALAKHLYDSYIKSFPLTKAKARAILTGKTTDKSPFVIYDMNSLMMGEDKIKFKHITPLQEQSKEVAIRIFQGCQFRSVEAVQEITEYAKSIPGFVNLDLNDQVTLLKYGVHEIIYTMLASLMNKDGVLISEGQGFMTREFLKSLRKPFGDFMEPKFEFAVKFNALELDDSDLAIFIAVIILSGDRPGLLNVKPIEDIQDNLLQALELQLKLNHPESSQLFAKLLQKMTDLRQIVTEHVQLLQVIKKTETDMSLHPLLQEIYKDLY
Chain of Peroxisome proliferator-activated receptor gamma/Nuclear receptor coactivator 1 (Q15788 whole entry, further chain): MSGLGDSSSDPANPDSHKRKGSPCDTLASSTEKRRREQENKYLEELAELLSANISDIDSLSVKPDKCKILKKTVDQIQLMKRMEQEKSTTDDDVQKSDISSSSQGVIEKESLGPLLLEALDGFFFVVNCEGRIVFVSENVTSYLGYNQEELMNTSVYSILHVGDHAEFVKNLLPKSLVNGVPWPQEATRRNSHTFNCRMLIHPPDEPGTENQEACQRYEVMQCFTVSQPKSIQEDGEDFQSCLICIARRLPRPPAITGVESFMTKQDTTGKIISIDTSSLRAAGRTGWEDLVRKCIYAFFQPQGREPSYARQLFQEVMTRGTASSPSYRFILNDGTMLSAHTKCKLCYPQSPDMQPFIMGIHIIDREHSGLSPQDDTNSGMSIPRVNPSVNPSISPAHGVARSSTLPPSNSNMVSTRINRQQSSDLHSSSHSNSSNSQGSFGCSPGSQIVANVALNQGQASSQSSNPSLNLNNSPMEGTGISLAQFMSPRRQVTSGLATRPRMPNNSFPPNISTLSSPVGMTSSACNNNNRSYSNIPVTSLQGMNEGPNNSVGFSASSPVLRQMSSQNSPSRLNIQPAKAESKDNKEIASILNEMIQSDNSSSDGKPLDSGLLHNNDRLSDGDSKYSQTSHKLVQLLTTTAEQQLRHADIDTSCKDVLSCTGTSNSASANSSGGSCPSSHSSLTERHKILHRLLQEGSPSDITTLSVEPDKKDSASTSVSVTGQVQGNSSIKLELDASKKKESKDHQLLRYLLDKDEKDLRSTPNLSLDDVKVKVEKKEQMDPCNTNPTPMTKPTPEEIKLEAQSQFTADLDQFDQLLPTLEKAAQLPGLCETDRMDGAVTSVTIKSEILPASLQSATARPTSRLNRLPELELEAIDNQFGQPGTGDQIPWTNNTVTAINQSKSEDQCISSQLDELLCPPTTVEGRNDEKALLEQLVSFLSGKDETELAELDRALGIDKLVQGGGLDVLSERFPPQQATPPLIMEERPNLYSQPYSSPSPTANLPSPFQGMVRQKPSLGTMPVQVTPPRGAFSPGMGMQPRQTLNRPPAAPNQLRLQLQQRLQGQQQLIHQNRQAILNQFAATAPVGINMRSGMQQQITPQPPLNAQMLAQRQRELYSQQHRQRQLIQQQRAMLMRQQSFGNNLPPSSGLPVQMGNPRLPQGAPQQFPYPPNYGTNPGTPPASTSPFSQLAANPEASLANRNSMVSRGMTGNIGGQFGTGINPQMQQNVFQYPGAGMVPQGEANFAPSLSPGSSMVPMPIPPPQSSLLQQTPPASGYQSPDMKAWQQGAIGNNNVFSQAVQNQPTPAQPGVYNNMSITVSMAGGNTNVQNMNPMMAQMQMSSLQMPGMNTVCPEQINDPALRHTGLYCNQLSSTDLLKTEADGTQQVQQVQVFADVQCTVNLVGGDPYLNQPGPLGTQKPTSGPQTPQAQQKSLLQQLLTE
Chain of Peroxisome proliferator-activated receptor gamma/Nuclear receptor coactivator 2 (P37231 whole entry): as the sequence (P37231 whole entry) above
Chain of Peroxisome proliferator-activated receptor gamma/Nuclear receptor coactivator 2 (Q15596 whole entry, further chain): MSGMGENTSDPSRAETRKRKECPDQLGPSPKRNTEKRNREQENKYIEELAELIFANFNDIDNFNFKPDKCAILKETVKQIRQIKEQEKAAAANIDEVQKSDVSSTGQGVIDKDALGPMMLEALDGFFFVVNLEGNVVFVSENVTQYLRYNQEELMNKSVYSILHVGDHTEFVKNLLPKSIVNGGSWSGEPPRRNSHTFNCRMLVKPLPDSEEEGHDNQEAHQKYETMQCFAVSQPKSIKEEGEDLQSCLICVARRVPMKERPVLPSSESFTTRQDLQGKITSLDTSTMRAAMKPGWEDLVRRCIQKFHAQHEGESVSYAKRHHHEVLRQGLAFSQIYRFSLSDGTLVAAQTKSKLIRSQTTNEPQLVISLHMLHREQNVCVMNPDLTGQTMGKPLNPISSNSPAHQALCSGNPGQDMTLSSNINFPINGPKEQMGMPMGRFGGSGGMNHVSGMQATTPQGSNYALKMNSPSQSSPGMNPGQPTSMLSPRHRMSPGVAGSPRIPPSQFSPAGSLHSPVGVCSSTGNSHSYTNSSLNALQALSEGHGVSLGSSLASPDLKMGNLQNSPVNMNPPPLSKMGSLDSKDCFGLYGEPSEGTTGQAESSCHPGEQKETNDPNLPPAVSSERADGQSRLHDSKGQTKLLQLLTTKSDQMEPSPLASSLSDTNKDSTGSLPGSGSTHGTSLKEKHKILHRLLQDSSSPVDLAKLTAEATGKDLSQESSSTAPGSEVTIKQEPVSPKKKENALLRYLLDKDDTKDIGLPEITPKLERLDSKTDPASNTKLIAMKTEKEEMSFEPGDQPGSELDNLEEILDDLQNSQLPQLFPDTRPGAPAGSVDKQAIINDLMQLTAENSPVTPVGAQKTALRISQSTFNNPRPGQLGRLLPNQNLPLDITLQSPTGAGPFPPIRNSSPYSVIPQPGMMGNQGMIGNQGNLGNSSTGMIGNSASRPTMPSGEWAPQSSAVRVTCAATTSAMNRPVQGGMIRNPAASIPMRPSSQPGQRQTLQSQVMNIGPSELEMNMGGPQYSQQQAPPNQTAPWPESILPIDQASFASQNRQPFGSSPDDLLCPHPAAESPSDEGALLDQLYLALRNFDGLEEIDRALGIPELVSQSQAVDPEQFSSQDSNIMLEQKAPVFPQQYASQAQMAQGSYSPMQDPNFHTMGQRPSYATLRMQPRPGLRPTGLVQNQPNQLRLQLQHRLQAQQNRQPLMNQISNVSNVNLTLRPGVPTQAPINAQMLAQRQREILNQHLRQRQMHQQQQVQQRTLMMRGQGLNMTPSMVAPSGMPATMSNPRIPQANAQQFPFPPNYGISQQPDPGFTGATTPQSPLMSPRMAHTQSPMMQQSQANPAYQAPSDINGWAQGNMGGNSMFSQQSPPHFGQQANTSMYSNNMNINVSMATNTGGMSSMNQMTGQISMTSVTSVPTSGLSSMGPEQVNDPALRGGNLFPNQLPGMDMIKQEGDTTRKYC

With `COC(=O)c1cccc(N2C(=O)C(Cl)=C(N3CCOCC3)C2=O)c1` the EC50 (Protein RecA) was 1.93 µM (active), the AC50 [1] was 4.2 µM (active) and the IC50 (Genome polyprotein) was 23.6 µM (active).
For `COc1ccc(-c2nnc(Nc3ccc(S(=O)(=O)Nc4nccs4)cc3)c3ccccc23)cc1`, the EC50 [2] was 9.18 µM (active), the EC50 [3] was > 79.4 µM (not active) and the EC50 [4] was 14.9 µM (inactive). For the same compound, the EC50 [5] was > 53 µM (inactive), the IC50 [6] was > 66.6 µM (inactive) and the IC50 [7] was > 47.1 µM (inactive). The IC50 [8] was 18.2 µM (active).
With `COc1ccc2c(c1)C=C(C(=O)NCc1ccc(Cl)cc1)CO2` the AC50 [9] was 69.4 µM (active).
With `CC1=NN(Cc2ccccc2)C(=O)C1C(c1ccccc1)C(C#N)C#N` (stereo not given) the AC50 [10] was 5.37 µM (active), the EC50 (Protein RecA) was 2.22 µM (active) and the AC50 [1] was 3.54 µM (active). The IC50 (Genome polyprotein) was 55.4 µM (active).
